Measurements from ChEMBL document CHEMBL1201862, “PubChem BioAssay data set” (2004).
Calls of active or inactive are those of the source.

Tests used:
[1] = molecular target: T1, Histone-lysine N-methyltransferase NSD2 (Homo sapiens, UniProt O96028); format: biochemical
T1 sequence (O96028 whole entry): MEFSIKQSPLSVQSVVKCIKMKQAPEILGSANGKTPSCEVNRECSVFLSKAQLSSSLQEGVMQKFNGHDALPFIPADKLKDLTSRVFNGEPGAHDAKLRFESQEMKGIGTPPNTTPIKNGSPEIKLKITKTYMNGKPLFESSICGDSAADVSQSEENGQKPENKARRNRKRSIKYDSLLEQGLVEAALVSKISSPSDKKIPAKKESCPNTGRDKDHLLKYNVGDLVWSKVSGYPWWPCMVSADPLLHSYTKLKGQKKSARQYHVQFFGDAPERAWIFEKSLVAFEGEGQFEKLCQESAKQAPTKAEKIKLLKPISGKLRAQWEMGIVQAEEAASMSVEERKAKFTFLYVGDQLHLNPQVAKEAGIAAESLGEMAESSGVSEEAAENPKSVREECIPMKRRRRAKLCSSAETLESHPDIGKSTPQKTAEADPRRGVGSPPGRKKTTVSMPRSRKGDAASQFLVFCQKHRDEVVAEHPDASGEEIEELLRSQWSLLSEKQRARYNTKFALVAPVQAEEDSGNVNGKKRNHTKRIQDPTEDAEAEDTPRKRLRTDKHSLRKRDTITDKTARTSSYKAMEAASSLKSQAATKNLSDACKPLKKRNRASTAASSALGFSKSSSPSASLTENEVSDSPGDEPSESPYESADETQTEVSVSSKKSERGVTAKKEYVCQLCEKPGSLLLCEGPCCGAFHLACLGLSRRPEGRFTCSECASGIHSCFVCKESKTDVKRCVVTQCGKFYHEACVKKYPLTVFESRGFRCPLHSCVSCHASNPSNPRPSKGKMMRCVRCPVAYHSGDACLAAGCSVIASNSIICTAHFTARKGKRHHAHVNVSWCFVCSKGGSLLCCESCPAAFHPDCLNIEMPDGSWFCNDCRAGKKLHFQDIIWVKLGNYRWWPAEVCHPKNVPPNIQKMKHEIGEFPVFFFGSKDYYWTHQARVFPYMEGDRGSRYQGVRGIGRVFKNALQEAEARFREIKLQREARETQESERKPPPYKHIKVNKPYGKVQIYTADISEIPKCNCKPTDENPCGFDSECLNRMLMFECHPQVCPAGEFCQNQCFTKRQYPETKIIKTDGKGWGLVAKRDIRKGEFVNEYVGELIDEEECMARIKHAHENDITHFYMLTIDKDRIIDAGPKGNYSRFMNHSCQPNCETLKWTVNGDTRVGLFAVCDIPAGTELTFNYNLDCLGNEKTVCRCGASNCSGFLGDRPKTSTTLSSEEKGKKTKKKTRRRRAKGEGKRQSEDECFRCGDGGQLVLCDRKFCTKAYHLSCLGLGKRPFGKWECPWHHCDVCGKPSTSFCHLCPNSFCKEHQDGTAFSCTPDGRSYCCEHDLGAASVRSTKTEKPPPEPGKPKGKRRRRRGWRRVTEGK

[2] = molecular target: MAP kinase-activated protein kinase 3 (Homo sapiens, UniProt Q16644); format: functional;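 note: value comes from a kinome-wide profiling panel in which MAPKAPK3 is one of the panel members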
[3] = molecular target: Serine/threonine-protein kinase MRCK alpha (Homo sapiens, UniProt Q5VT25); format: functional
[4] = molecular target: Serine/threonine-protein kinase Chk2 (Homo sapiens, UniProt O96017); format: functional;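 note: CHEK2 entry within a kinome-wide screening panel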
[5] = molecular target: MAP/microtubule affinity-regulating kinase 3 (Homo sapiens, UniProt P27448); format: functional;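 note: MARK3 affinity measured as one member of a kinome panel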
Chain of MAP/microtubule affinity-regulating kinase 3 (P27448 whole entry): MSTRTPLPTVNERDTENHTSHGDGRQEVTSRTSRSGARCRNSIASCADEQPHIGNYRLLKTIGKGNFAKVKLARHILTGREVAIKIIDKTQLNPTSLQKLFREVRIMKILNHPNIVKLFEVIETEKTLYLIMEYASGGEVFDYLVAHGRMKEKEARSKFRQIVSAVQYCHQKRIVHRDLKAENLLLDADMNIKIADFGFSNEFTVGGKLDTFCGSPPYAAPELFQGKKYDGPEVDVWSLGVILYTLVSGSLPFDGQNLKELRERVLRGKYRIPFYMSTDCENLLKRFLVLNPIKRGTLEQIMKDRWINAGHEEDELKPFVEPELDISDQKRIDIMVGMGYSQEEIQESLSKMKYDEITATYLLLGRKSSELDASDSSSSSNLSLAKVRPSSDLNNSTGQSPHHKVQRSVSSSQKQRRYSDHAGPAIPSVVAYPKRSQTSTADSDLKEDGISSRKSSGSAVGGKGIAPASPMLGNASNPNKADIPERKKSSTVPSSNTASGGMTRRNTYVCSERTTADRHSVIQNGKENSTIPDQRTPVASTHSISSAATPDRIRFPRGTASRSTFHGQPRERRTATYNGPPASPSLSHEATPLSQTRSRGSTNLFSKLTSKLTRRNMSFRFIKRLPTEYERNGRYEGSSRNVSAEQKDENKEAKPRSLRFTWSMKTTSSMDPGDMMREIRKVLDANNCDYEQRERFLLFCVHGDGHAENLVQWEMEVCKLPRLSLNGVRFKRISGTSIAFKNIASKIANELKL

[6] = molecular target: Cyclin-dependent kinase 2 (Homo sapiens, UniProt P24941); format: functional;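 note: CDK2 measured as one member of a broad kinome profiling panel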
[7] = molecular target: Proto-oncogene tyrosine-protein kinase ROS (Homo sapiens, UniProt P08922); format: functional;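 note: ROS1 tested as one member of a kinome-wide kinase panel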
[8] = molecular target: Cyclin-dependent kinase 5 (Homo sapiens, UniProt Q00535); format: functional;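 note: CDK5 measured as one member of a kinase profiling panel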
Chain of Cyclin-dependent kinase 5 (Q00535 whole entry): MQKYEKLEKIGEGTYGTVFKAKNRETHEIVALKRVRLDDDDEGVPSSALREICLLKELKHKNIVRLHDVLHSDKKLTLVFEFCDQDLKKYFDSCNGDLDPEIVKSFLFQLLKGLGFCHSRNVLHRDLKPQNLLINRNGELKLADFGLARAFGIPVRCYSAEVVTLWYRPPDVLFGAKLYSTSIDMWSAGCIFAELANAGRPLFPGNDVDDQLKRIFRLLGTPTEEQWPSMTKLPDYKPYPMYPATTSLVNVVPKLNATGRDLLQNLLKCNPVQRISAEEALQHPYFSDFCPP

[9] = molecular target: Tyrosine-protein kinase Srms (Homo sapiens, UniProt Q9H3Y6); format: functional;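 note: SRMS measured as one member of a kinome-wide kinase profiling panel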
[10] = molecular target: Serine/threonine-protein kinase pim-3 (Homo sapiens, UniProt Q86V86); format: functional;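 note: value obtained as one member of a broad kinase panel profiling effort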
[11] = molecular target: Serine/threonine-protein kinase D2 (Homo sapiens, UniProt Q9BZL6); format: functional;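 note: measured against PRKD2 as one member of a kinome-wide kinase profiling panel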
[12] = molecular target: G protein-coupled receptor kinase 5 (Homo sapiens, UniProt P34947); assay: Navigating the Kinome. Panel member name: GPRK5; format: functional
Chain of G protein-coupled receptor kinase 5 (P34947 whole entry, canonical isoform): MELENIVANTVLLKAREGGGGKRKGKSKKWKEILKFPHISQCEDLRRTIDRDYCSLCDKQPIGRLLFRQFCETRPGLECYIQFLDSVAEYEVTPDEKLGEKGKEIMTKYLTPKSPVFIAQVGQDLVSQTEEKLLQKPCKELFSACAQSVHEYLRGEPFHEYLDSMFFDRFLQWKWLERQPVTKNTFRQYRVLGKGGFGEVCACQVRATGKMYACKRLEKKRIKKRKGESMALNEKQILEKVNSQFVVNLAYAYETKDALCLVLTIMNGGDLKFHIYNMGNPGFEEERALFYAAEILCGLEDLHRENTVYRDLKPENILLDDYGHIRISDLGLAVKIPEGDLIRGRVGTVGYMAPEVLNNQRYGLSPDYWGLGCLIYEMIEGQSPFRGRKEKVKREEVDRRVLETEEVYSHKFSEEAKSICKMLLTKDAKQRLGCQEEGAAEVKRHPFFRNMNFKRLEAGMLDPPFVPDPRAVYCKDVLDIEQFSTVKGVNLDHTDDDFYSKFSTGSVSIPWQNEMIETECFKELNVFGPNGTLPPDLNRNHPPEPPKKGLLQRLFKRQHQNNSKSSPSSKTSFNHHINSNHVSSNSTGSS

[13] = molecular target: Casein kinase I isoform gamma-1 (Homo sapiens, UniProt Q9HCP0); format: functional;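 note: measured as the CSNK1G1 member of a kinome profiling panel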
[14] = molecular target: Casein kinase II subunit alpha (Homo sapiens, UniProt P68400); format: functional
[15] = molecular target: Fibroblast growth factor receptor 3 (Homo sapiens, UniProt P22607); format: functional
[16] = molecular target: Testis-specific serine/threonine-protein kinase 1 (Homo sapiens, UniProt Q9BXA7); format: functional
Chain of Testis-specific serine/threonine-protein kinase 1 (Q9BXA7 whole entry): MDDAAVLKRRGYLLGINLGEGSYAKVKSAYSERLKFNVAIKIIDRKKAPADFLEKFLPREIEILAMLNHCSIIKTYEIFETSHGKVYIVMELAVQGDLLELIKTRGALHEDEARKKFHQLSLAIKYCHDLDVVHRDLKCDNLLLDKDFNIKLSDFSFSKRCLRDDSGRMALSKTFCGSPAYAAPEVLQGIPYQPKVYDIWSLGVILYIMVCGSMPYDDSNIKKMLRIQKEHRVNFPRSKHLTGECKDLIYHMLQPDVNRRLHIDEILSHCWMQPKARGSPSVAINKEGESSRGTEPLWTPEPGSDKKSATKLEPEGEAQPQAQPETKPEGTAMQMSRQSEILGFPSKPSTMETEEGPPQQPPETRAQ

[17] = molecular target: Non-receptor tyrosine-protein kinase TYK2 (Homo sapiens, UniProt P29597); format: functional
Chain of Non-receptor tyrosine-protein kinase TYK2 (P29597 whole entry): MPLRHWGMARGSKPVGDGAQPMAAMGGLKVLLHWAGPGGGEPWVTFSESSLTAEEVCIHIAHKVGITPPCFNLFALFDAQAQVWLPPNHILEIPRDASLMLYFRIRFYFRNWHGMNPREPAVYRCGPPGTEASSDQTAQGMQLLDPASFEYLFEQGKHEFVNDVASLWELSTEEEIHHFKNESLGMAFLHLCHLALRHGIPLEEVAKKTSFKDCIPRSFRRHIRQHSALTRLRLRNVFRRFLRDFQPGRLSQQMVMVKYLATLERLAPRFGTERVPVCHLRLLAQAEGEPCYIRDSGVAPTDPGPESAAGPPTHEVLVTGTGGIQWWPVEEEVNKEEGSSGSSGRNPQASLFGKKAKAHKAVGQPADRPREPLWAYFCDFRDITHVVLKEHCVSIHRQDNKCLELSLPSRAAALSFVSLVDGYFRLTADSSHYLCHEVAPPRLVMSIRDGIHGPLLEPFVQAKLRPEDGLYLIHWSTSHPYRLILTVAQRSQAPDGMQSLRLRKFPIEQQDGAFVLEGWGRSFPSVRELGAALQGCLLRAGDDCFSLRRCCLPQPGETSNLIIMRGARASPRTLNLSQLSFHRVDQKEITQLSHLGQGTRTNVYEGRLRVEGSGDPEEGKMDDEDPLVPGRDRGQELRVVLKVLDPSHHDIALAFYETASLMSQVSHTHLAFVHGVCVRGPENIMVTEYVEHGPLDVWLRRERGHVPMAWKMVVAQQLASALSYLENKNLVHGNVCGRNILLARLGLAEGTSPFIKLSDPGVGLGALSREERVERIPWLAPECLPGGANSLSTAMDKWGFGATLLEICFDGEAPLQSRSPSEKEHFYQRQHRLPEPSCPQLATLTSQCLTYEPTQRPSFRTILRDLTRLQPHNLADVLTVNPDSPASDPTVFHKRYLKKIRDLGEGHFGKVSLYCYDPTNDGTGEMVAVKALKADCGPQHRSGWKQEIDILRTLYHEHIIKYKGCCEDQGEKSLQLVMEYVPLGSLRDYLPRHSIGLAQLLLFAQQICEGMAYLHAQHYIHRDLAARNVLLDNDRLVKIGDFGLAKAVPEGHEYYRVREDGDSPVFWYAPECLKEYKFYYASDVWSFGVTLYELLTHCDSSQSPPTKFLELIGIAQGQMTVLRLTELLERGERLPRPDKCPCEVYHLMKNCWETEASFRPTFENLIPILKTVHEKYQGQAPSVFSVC

[18] = molecular target: Protein kinase C iota type (Homo sapiens, UniProt P41743); format: functional;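 note: measured within a kinome-wide kinase panel, PRKCI as panel member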
[19] = molecular target: 3-phosphoinositide-dependent protein kinase 1 (Homo sapiens, UniProt O15530); format: functional;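 note: value comes from the Navigating the Kinome panel, PDPK1 member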
Chain of 3-phosphoinositide-dependent protein kinase 1 (O15530 whole entry): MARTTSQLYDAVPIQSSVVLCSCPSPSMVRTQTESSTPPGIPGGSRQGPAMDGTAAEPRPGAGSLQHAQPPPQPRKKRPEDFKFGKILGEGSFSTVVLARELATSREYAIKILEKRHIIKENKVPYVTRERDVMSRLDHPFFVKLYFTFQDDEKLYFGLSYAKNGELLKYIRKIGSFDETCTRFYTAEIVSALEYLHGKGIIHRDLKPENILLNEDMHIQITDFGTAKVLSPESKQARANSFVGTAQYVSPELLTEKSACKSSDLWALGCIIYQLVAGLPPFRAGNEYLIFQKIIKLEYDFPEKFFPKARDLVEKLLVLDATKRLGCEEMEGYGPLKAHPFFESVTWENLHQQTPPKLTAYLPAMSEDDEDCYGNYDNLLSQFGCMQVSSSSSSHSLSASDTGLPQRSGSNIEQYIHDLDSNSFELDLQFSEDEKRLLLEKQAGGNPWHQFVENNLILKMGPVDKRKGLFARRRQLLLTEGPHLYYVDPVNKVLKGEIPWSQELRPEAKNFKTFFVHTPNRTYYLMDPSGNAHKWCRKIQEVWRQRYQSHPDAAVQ

[20] = molecular target: Receptor tyrosine-protein kinase erbB-2 (Homo sapiens, UniProt P04626); assay: Navigating the Kinome. Panel member name: ERBB2; format: functional
[21] = molecular target: Protein kinase C gamma type (Homo sapiens, UniProt P05129); format: functional
Ephrin type-A receptor 2 = Ephrin type-A receptor 2 (Homo sapiens, UniProt P29317); format: functional;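 note: EPHA2 tested as one member of a kinome-wide kinase panel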
[22] = C. albicans growth with fluconazole, confirmation, fluorescence, retest (AID 2467); format: functional, cell-based
[23] = system: Streptococcus sp. 'group A'; assay: growth inhibition of control SK(-) GAS strain, dose response, counter-screen for streptokinase expression inhibitor project, luminescence, kanamycin, BacTiterGlo, confirmation (AID 1900); format: functional, organism-based
[24] = Shn3 3'UTR reporter inhibitors, dose response, cell-based, Clone20 osteoblasts, firefly luciferase, cherry-picked (AID 624132); format: functional;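 note: firefly luciferase luminescence from reporter carrying the Shn3 3'UTR in osteoblasts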
Streptococcus = assay: Group A Streptococcus viability loss, dose response, counter-screen for streptokinase expression inhibitor project, luminescence, BacTiterGlo (AID 1915); format: functional, organism-based;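 note: potency for reduction of bacterial viability or growth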
cells = format: functional, cell-based
[25] = control 3'UTR Renilla luciferase suppression, dose response, counter-screen for Shn3 inhibitor project, cell-based, Clone20-Shn3RL, cherry-picked (AID 624133); format: functional

OCC[n+]1c2ccccc2nc2ccc(N3CCOCC3)cc21
AC50 [1]: 6780 nM (active)

CS(=O)(=O)N(Cc1ccc2[nH]c(=O)c3cccn3c2c1)C1CC1
Ki [2]: 50.1 nM (active) | Ki [3]: 2000 nM (active) | Ki [4]: > 1580 nM (inactive) | Ki [5]: > 6310 nM (inactive) | Ki [6]: > 7940 nM (inactive) | Ki [7]: 50.1 nM (active) | Ki [8]: > 6310 nM (inactive) | Ki [9]: 631 nM (active) | Ki [10]: 2510 nM (active) | Ki [11]: 200 nM (active) | Ki [12]: > 3980 nM (inactive) | Ki [13]: 631 nM (active) | Ki [14]: 15.8 nM (active) | Ki [15]: > 2000 nM (inactive) | Ki [16]: > 1580 nM (inactive) | Ki [17]: > 2000 nM (inactive) | Ki [18]: > 5010 nM (inactive) | Ki [19]: 79.4 nM (active) | Ki [20]: 31.6 nM (active) | Ki [21]: 1260 nM (active) | Ki (Ephrin type-A receptor 2): > 3160 nM (inactive)

Cc1cc(NC(c2ccc(Cl)cc2)c2ccc3cccnc3c2O)no1 (stereo not drawn)
EC50 [22]: 741 nM (active) | EC50 [23]: 416 nM (active) | AC50 [24]: 1050 nM (active) | EC50 (Streptococcus): 15000 nM (active) | EC50 (cells): 6450 nM (active) | AC50 [25]: 677 nM (active)
